From patent US12690589B2, “Herbicidal compositions comprising pyroxasulfone” (BASF SE, priority 2024, dated 2026)

Key:
Experiment in all cases: Post-emergence application in field trials, herbicidal activity (damage scale 0 to 100%)
Assay type in all cases: in vivo
[1] = tested on: Digitaria sanguinalis (DIGSA)
Procedure, shortened: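 Field sites with natural or seeded weeds were sprayed post-emergence via flat fan nozzles in 200 l/ha water plus 0.25 v/v % MSO adjuvant, solo or mixed with pyroxasulfone and other partners. Damage was scored 0–100% versus untreated plants at indicated DAT. Colby expected values were used to judge synergy.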

[2] = tested on: Amaranthus palmeri (AMAPA); conditions: height 30 cm, 21 DAT, Table 1.1
Description: (§1) In the examples below, using the method of S. R. Colby (1967) “Calculating synergistic and antagonistic responses of herbicide combinations”, Weeds 15, p. 22ff., the value E, which is expected if the activity of the individual active compounds is only additive, was calculated:
(§2) [formula] • wherein • X=percent activity using active herbicide A at an application rate a; • Y=percent activity using active herbicide B (e.g. pyroxasulfone) at an application rate b; • E=expected activity (in %) by A+B at application rates a+b.
(§3) If the value found experimentally is higher than the value E calculated according to Colby, a synergistic effect is present.
(§4) On field test sites, natural weed infestation or seeded weeds were treated post-emergence of the weeds.
(§5) In the field trials, the weeds were treated as indicated below.
In the following experiments, the herbicidal activity for the individual herbicidal compositions (solo and mixture applications) was assessed at the indicated days after treatment (DAT). The assessments for the damage on undesired weeds caused by the composition was carried out using a scale from 0 to 100%, compared to the untreated control plants. Here, 0 means no damage and 100 means complete destruction of the plants. […]

[3] = tested on: Amaranthus viridis (AMAVI); conditions: growth stage 16-18, height 10-15 cm, 20 DAT, Table 2.1
[4] = tested on: Brachiaria plantaginea (BRAPL); conditions: growth stage 21-25, height 10-15 cm, 20 DAT, Table 2.1
[5] = tested on: Galinsoga parviflora (GASPA); conditions: height 15-35 cm, 21 DAT, Table 2.4
[6] = tested on: Panicum maximum (PANMA); conditions: height 20-25 cm, 21 DAT, Table 2.3
[7] = tested on: Portulaca oleracea (POROL); conditions: growth stage 14-16, height 5-10 cm, 20 DAT, Table 2.1
[8] = tested on: Spermacoce latifolia (BOILF); conditions: 21 DAT, Table 2.5
[9] = tested on: Amaranthus cruentus (AMACR); conditions: height 20-25 cm
Description: as §1, §2, §3, §4, §5
(§6) In the following experiments, the herbicidal activity for the individual herbicidal compositions (solo and mixture applications) was assessed at the indicated days after treatment (DAT). The assessments for the damage on undesired weeds caused by the composition was carried out using a scale from 0 to 100%, compared to the untreated control plants. Here, 0 means no damage and 100 means complete destruction of the plants.
(§7) Herbicide A-1 (300 g/l) and pyroxasulfone (85% WG) were, together with addition of 0.25 l/ha Dash® MSO Max as adjuvant, formulated in water as distribution medium (water volume 200 l/ha) and sprayed with commercial flat fan nozzles.

[10] = tested on: Amaranthus hybridus (AMACH); conditions: height 20-25 cm, 14 DAT, Table 3.1
Description: as §1, §2, §3, §4, §5, §6, §7

[11] = tested on: Echinochloa colonum (ECHCO); conditions: height 20-25 cm, 25 DAT, Table 3.2
Description: as §1, §2, §3, §4, §5, §6, §7

[12] = tested on: Sorghum vulgare (SORVU); conditions: height 20-25 cm, 14 DAT, Table 3.1
Description: as §1, §2, §3, §4, §5, §6, §7

[13] = 7 DAT, stage 22, height 10-15 cm, g ai/ha A-1 18, B 70, C-12 252
[14] = 7 DAT, stage 22, height 10-15 cm, g ai/ha A-1 18, B 90, C-12 252
[15] = 21 DAT, stage 22, height 10-15 cm, g ai/ha A-1 18, B 70, C-12 252
[16] = 21 DAT, stage 22, height 10-15 cm, g ai/ha A-1 18, B 90, C-12 252
[17] = 42 DAT, stage 22, height 10-15 cm, g ai/ha A-1 18, B 70, C-12 252
[18] = 42 DAT, stage 22, height 10-15 cm, g ai/ha A-1 18, B 90, C-12 252
[19] = Table 8.1, 7 DAT, stage 22, height 10-15 cm, g ai/ha A-1 18, B 70, C-12 1066
[20] = Table 8.2, 21 DAT, stage 22, height 10-15 cm, g ai/ha A-1 18, B 70, C-12 1066
[21] = Table 8.4, 42 DAT, stage 22, height 10-15 cm, g ai/ha A-1 18, B 70, C-12 1066
[22] = 7 DAT, stage 22, height 10-15 cm, g ai/ha A-1 12.5, B 70, C-4 12.5
[23] = 7 DAT, stage 22, height 10-15 cm, g ai/ha A-1 18, B 70, C-4 12.5
[24] = 7 DAT, stage 22, height 10-15 cm, g ai/ha A-1 18, B 70, C-8 840
[25] = 7 DAT, stage 22, height 10-15 cm, g ai/ha A-1 18, B 90, C-4 12.5
[26] = 7 DAT, stage 22, height 10-15 cm, g ai/ha A-1 18, B 90, C-8 840
[27] = 21 DAT, stage 22, height 10-15 cm, g ai/ha A-1 12.5, B 70, C-4 12.5
[28] = 21 DAT, stage 22, height 10-15 cm, g ai/ha A-1 18, B 70, C-4 12.5
[29] = 21 DAT, stage 22, height 10-15 cm, g ai/ha A-1 18, B 90, C-4 12.5
[30] = 42 DAT, stage 22, height 10-15 cm, g ai/ha A-1 12.5, B 70
[31] = 42 DAT, stage 22, height 10-15 cm, g ai/ha A-1 12.5, B 70, C-4 12.5
[32] = 42 DAT, stage 22, height 10-15 cm, g ai/ha A-1 18, B 70
[33] = 42 DAT, stage 22, height 10-15 cm, g ai/ha A-1 18, B 70, C-4 12.5
[34] = 42 DAT, stage 22, height 10-15 cm, g ai/ha A-1 18, B 90
[35] = 42 DAT, stage 22, height 10-15 cm, g ai/ha A-1 18, B 90, C-4 12.5

## CP(=O)(O)CC[C@H](N)C(=O)O.N [C-12, glufosinate-P-ammonium]
[1]; [13]
  % Herbicidal activity: 70%
[1]; [14]
  % Herbicidal activity: 70%
[1]; [15]
  % Herbicidal activity: 70%
[1]; [16]
  % Herbicidal activity: 70%
[1]; [17]
  % Herbicidal activity: 55%
[1]; [18]
  % Herbicidal activity: 55%
[1]; [19]
  % Herbicidal activity: 20%
[1]; [20]
  % Herbicidal activity: 20%
[1]; [21]
  % Herbicidal activity: 10%

## CCOC(=O)COc1ccccc1Oc1nc(-n2c(=O)cc(C(F)(F)F)n(C)c2=O)c(F)cc1Cl [A-1, ethyl 2-[2-[[3-chloro-5-fluoro-6-[3-methyl-2,6-dioxo-4-(trifluoromethyl)pyrimidin-1-yl]-2-pyridyl]oxy]phenoxy]acetate]
[2]; A-1 25 g ai/ha
  % Herbicidal activity: 85%
[1]; [22]
  % Herbicidal activity: 80%
[1]; [23]
  % Herbicidal activity: 85%
[1]; [24]
  % Herbicidal activity: 80%
[1]; [13]
  % Herbicidal activity: 85%
[1]; [25]
  % Herbicidal activity: 85%
[1]; [26]
  % Herbicidal activity: 80%
[1]; [14]
  % Herbicidal activity: 85%
[1]; [27]
  % Herbicidal activity: 70%
[1]; [28]
  % Herbicidal activity: 80%
[1]; [15]
  % Herbicidal activity: 85%
[1]; [29]
  % Herbicidal activity: 80%
[1]; [16]
  % Herbicidal activity: 85%
[1]; [30]
  % Herbicidal activity: 65%
[1]; [31]
  % Herbicidal activity: 60%
[1]; [32]
  % Herbicidal activity: 80%
[1]; [33]
  % Herbicidal activity: 70%
[1]; [17]
  % Herbicidal activity: 70%
[1]; [34]
  % Herbicidal activity: 80%
[1]; [35]
  % Herbicidal activity: 70%
[1]; [18]
  % Herbicidal activity: 70%
[1]; DIGSA, growth stage 22, height 10-15 cm, A-1 12.5 g ai/ha, 7 DAT, Table 4.1
  % Herbicidal activity: 80%
[1]; DIGSA, growth stage 22, height 10-15 cm, A-1 12.5 g ai/ha, 21 DAT, Table 4.3
  % Herbicidal activity: 70%
[1]; DIGSA, growth stage 22, height 10-15 cm, A-1 18 g ai/ha, 7 DAT, Table 4.1
  % Herbicidal activity: 80%
[1]; DIGSA, growth stage 22, height 10-15 cm, A-1 18 g ai/ha, 21 DAT, Table 4.3
  % Herbicidal activity: 80%
[1]; [19]
  % Herbicidal activity: 80%
[1]; [20]
  % Herbicidal activity: 80%
[1]; [21]
  % Herbicidal activity: 60%
[3]; A-1 25 g ai/ha
  % Herbicidal activity: 71%
[3]; A-1 50 g ai/ha
  % Herbicidal activity: 83%
[4]; A-1 25 g ai/ha
  % Herbicidal activity: 49%
[5]; A-1 25 g ai/ha
  % Herbicidal activity: 82%
[5]; A-1 50 g ai/ha
  % Herbicidal activity: 94%
[6]; A-1 25 g ai/ha
  % Herbicidal activity: 75%
[7]; A-1 50 g ai/ha
  % Herbicidal activity: 60%
[8]; A-1 25 g ai/ha
  % Herbicidal activity: 94%
[8]; A-1 50 g ai/ha
  % Herbicidal activity: 97%
[9]; A-1 25 g ai/ha, 14 DAT, Table 3.1
  % Herbicidal activity: 88%
[9]; A-1 25 g ai/ha, 25 DAT, Table 3.2
  % Herbicidal activity: 89%
[9]; A-1 50 g ai/ha, 14 DAT, Table 3.1
  % Herbicidal activity: 91%
[9]; A-1 50 g ai/ha, 25 DAT, Table 3.2
  % Herbicidal activity: 91%
[10]; A-1 50 g ai/ha
  % Herbicidal activity: 87%
[11]; A-1 50 g ai/ha
  % Herbicidal activity: 55%
[12]; A-1 50 g ai/ha
  % Herbicidal activity: 88%

## Cn1nc(C(F)(F)F)c(CS(=O)(=O)C2=NOC(C)(C)C2)c1OC(F)F [B, pyroxasulfone]
[2]; B 120 g ai/ha
  % Herbicidal activity: 2%
[1]; [22]
  % Herbicidal activity: 0%
[1]; [23]
  % Herbicidal activity: 0%
[1]; [24]
  % Herbicidal activity: 0%
[1]; [13]
  % Herbicidal activity: 0%
[1]; [25]
  % Herbicidal activity: 0%
[1]; [26]
  % Herbicidal activity: 0%
[1]; [14]
  % Herbicidal activity: 0%
[1]; [27]
  % Herbicidal activity: 0%
[1]; [28]
  % Herbicidal activity: 0%
[1]; [15]
  % Herbicidal activity: 0%
[1]; [29]
  % Herbicidal activity: 0%
[1]; [16]
  % Herbicidal activity: 0%
[1]; [30]
  % Herbicidal activity: 0%
[1]; [31]
  % Herbicidal activity: 0%
[1]; [32]
  % Herbicidal activity: 0%
[1]; [33]
  % Herbicidal activity: 0%
[1]; [17]
  % Herbicidal activity: 0%
[1]; [34]
  % Herbicidal activity: 0%
[1]; [35]
  % Herbicidal activity: 0%
[1]; [18]
  % Herbicidal activity: 0%
[1]; DIGSA, growth stage 22, height 10-15 cm, B 70 g ai/ha, 7 DAT, Table 4.1
  % Herbicidal activity: 0%
[1]; DIGSA, growth stage 22, height 10-15 cm, B 70 g ai/ha, 21 DAT, Table 4.3
  % Herbicidal activity: 0%
[1]; DIGSA, growth stage 22, height 10-15 cm, B 90 g ai/ha, 7 DAT, Table 4.1
  % Herbicidal activity: 0%
[1]; DIGSA, growth stage 22, height 10-15 cm, B 90 g ai/ha, 21 DAT, Table 4.3
  % Herbicidal activity: 0%
[1]; [19]
  % Herbicidal activity: 0%
[1]; [20]
  % Herbicidal activity: 0%
[1]; [21]
  % Herbicidal activity: 0%
[3]; B 120 g ai/ha
  % Herbicidal activity: 0%
[4]; B 120 g ai/ha
  % Herbicidal activity: 0%
[5]; B 120 g ai/ha
  % Herbicidal activity: 0%
[6]; B 120 g ai/ha
  % Herbicidal activity: 0%
[7]; B 120 g ai/ha
  % Herbicidal activity: 0%
[8]; B 120 g ai/ha
  % Herbicidal activity: 5%
[9]; B 120 g ai/ha, 14 DAT, Table 3.1
  % Herbicidal activity: 13%
[9]; B 120 g ai/ha, 25 DAT, Table 3.2
  % Herbicidal activity: 16%
[10]; B 120 g ai/ha
  % Herbicidal activity: 16%
[11]; B 120 g ai/ha
  % Herbicidal activity: 12%
[12]; B 120 g ai/ha
  % Herbicidal activity: 5%
